In patent US20260007639A1, “COMPOUNDS FOR THE TREATMENT OF NEUROMUSCULAR DISORDERS” (NMD PHARMA A/S, priority 2017, published 2026):

Columns and labels:
CIC-1 channels = target: T1, CIC-1 channels (Rattus norvegicus, UniProt P35524); test: Electrophysiological measurement of compound inhibition of CIC-1 (Gm) in rat soleus muscle fibres: EC50 (Table 7)
T1 sequence (P35524 1-994): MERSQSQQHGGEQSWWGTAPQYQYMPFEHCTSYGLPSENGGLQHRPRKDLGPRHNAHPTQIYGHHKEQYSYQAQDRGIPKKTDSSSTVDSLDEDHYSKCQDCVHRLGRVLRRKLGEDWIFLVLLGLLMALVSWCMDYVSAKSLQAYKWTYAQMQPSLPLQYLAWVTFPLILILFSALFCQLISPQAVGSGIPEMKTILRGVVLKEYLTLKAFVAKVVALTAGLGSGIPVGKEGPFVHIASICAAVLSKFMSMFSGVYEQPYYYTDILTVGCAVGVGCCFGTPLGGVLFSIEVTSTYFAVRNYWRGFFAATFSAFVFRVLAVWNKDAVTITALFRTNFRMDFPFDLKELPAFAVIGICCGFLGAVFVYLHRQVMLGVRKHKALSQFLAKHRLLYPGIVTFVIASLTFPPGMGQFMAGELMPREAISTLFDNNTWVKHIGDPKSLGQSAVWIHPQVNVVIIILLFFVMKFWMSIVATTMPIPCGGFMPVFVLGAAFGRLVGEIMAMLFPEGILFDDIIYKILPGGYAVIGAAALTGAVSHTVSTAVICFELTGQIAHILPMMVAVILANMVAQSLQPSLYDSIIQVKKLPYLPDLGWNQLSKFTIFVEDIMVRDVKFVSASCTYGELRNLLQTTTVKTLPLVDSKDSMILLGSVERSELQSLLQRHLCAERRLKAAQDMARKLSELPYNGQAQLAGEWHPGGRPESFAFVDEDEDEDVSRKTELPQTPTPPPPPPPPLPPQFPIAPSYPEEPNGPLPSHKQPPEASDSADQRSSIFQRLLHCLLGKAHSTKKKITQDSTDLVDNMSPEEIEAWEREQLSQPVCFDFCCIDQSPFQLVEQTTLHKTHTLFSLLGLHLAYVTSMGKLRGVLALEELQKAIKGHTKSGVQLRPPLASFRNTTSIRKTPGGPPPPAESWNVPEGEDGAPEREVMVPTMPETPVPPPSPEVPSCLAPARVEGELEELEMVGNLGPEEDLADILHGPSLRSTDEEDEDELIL

human CIC-1 channels = target: T2, human CIC-1 channels (Homo sapiens, UniProt P35523); test: Automated patch-clamp on human CIC-1 expressed in CHO cells: shift of half activation voltage ΔV1/2; assay type: cell-based; details: compound in intracellular solution vs control cell patches; CHO cells expressing human CIC-1
T2 construct: host or cells: CHO (Chinese hamster ovary) cells constitutively expressing human ClC-1
Method: FIGS. 13A-13B: FIG. 13A illustrates the voltage protocol used to evoke currents in whole cell patches of CHO cells expressing human CIC-1 channels.
Experiments were performed using an automated patch clamp system that allowed high throughput testing of whole cell patches together with both intracellular and extracellular addition of compound.
Automated whole cell patch clamp experiments were performed with the Qpatch 16 system (Sophion Bioscience, Ballerup, Denmark) at room temperature. Data acquisition and analysis were performed in the Qassay software (ver. 5.6, Odense).
To evoke CIC-1 currents in whole cell patches, the membrane potential was initially stepped from a holding potential of −30 mV to +60 mV for 100 ms and then to various test voltages (sweeps) ranging from +120 mV to −140 mV in steps of 20 mV for 300 ms. To obtain tail currents, the membrane potential was stepped to −100 mV after each test voltage for 300 ms and then relaxed to −30 mV for 2 sec between sweeps (FIG. 3).
I/V relationships for whole cell instant and steady state current amplitudes were obtained by plotting average current densities at the beginning and at the end of the 300 ms step against the membrane potential (FIG. 4).
In order to determine the relative overall open probability (Po), the instantaneous tail currents were normalized to the maximal tail current obtained following the most positive voltage step and plotted against the test voltage. Plots of normalized tail currents from each whole cell patch were then fitted to a Boltzmann function allowing determination of half activation voltages (V1/2, FIG. 5).
For automated patch clamp experiments extracellular solutions contained: 2 mM CaCl2), 1 mM MgCl2, 10 mM HEPES, 4 mM KCl, 145 mM NaCl, 10 mM Glucose, pH adjusted to 7.4 with NaOH (2 M). Osmolality adjusted to ˜320 using sucrose.
Intracellular solutions contained: 80 mM CsF, 60 mM CsCl, 5/1 mM KOH/EGTA, 10 mM HEPES, 10 mM NaCl, pH adjusted to 7.2 with NaOH (2 M). Osmolality adjusted to ˜320 mOsm using sucrose.
Cells used in patch clamp experiments were Chinese hamster ovary cells (CHO) constitutively expressing human CIC-1 channels. The amino acid sequence encoded by the cDNA used to create this cell line was identical to the translated sequence for GenBank accession number NM_000083.2. Cells were produced by Charles River (Catalogue CT6175, Cleveland OH, USA) in a cryopreserved format. Experiments were performed on the cells directly after thawing (3×10^6 cells used in each experiment).
To evaluate the compound effect on CIC-1, when applied directly to the intracellular side of the cell membrane, the half activation voltage, V1/2, was determined from whole cell patches with compound added to the intracellular solution and then compared to V1/2 determined from control cell patches with only vehicle added to the intracellular solution. Additionally, the effect of extracellular added compound was evaluated by determine V1/2 and steady state current amplitudes before and after exchanging the extracellular solution to contain compound.
The difference in half activation voltage of CIC-1 channels, ΔV1/2, was determined as the difference between the cell patches treated intracellularly with compound and control cells patches and is reported in Table 4 below. A positive shift in ΔV 1/2 is reflecting CIC-1 channel inhibition by the tested compound. P-values of <0.05 is considered significant.

rat soleus muscles [1] = test: Recovery of force in isolated rat soleus nerve-muscle preparations after 115 nM tubocurarine, 50 μM compound (Table 8); details: 40 mins exposure
Method: Force traces from a representative muscle stimulated to contract in 1) control condition before addition of neuromuscular blocking agent, 2) the force response to stimulation after 90 minutes incubation with Tubocurarine. […] The traces presented in FIG. 12A (1, 2, 3), correspond to the dotted lines in FIG. 12B, respectively.
Recovery of force is quantified as the percentage of the force prior to tubocurarine that is recovered by the compound.
The current invention relates to compounds that inhibit CIC-1 ion channels and increase muscle excitability and thereby improve muscle function in clinical conditions where muscle activation is failing. Such conditions result in loss of contractile function of skeletal muscle, weakness and excessive fatigue. In this series of experiments the compounds were tested for their ability to restore contractile function of isolated rat muscle when the neuromuscular transmission had been compromised akin to neuromuscular disorders.
Experimentally, soleus muscles from 4-5 wk old rats were isolated with the motor nerve remaining attached. The nerve-muscle preparations were mounted in experimental setups that enabled electrical stimulation of the motor nerve. Stimulation of the motor nerve led to activation of the muscle fibres and ensuing force production that was recorded.
After mounting the nerve-muscle preparation in the experimental setup, the contractile function of the muscle was initially assessed under the control conditions (FIG. 2A). […] The experimental condition mimics the failing neuromuscular transmission in a range of neuromuscular disorders. After addition of tubocurarine the contractile force declined over the next 90 mins to 10-50% of the control force. 50 μM of the test compound was then added and the contractile force recovered despite the continued presence of tubocurarine. To quantify the ability of the compound to restore force the percentage of the initial force that was restored was determined after 40 mins of compound exposure (FIG. 2B) and the point increase is reported in Table 8.

rat soleus muscles [2] = test: Recovery of nerve-stimulated force in isolated rat soleus muscles with ACh receptors inhibited by 2 μM rocuronium; details: 2 μM rocuronium alone; 8 muscles
Method: In a separate series of experiments with 8 isolated rat soleus muscles, ACh receptors were inhibited using 2 μM rocuronium, which is a clinically used neuromuscular blocking agent. Under these conditions the nerve-stimulated force was reduced to 51±5% of force before rocuronium. […] This illustrates the potential of these compounds to be used as reversal agents.

female Lewis rats = test: In situ isometric hindlimb force in anaesthetised rats with neuromuscular transmission partially inhibited by Cisatracurium; assay type: in vivo, rat; details: 80 Hz stimulation, Cisatracurium infusion
Method: Isometric hindlimb force was measured in 12-week old female Lewis rats in the presence and absence of compound.
Rats were placed under anesthesia with isoflurane (2-4%), intubated and subsequently connected to a micro ventilator (Microvent 1, Hallowell EMC, US). Two stimulation electrodes were inserted through the skin to stimulate the sciatic nerve. A small incision was made proximal to the ankle, to expose the Achilles tendon, which was tied by cotton string, and connected to a force transducer (Fort250, World Precision Instruments) with adjustable position (Vernier control). The Achilles tendon was then cut distal to the attached cotton string. The rat was placed on a heated pad, and to prevent movement artefacts from contraction of the ankle dorsiflexors, the foot was fixated by tape on a footplate.
Muscle contractile properties were assessed by applying an electrical current (under supramaximal voltage conditions) to the nerve and recording the force generated by the muscle. The muscle was stretched until maximal force was obtained, when assessed by 2 Hz stimulation. Isometric force was measured every 30 seconds at 12 Hz (Twitch), 10 pulses, and at every 5 minutes at 80 Hz (Tetanic) for 1 second (80 pulses). This stimulation pattern was employed throughout the experiment, expect in few cases where 80 Hz stimulation was replaced by 12 Hz (10 pulses). […] When the level of neuromuscular inhibition was stable, the test article was injected i.v. at the chosen concentration. The effect of test article was assessed on its ability to increase force generated from the stimulation pattern applied. The effect was assessed in the ability to increase force per se (tetanic, 80 Hz, stimulation), and the ratio between individual twitch peaks (12 Hz stimulation). The effect was monitored for at least 1 hour after injection of test article. In addition, the time from injection of test article to maximal effect on force (both twitch and tetanic) was noted and the time for the effect to disappear (return to baseline), if possible. When appropriate the infusion of neuromuscular blocking agent was ceased, with the stimulation pattern continued, and the return of force to control levels was monitored. Animals were sacrificed by cervical dislocation while still fully sedated.

T2 sequence (P35523 whole entry): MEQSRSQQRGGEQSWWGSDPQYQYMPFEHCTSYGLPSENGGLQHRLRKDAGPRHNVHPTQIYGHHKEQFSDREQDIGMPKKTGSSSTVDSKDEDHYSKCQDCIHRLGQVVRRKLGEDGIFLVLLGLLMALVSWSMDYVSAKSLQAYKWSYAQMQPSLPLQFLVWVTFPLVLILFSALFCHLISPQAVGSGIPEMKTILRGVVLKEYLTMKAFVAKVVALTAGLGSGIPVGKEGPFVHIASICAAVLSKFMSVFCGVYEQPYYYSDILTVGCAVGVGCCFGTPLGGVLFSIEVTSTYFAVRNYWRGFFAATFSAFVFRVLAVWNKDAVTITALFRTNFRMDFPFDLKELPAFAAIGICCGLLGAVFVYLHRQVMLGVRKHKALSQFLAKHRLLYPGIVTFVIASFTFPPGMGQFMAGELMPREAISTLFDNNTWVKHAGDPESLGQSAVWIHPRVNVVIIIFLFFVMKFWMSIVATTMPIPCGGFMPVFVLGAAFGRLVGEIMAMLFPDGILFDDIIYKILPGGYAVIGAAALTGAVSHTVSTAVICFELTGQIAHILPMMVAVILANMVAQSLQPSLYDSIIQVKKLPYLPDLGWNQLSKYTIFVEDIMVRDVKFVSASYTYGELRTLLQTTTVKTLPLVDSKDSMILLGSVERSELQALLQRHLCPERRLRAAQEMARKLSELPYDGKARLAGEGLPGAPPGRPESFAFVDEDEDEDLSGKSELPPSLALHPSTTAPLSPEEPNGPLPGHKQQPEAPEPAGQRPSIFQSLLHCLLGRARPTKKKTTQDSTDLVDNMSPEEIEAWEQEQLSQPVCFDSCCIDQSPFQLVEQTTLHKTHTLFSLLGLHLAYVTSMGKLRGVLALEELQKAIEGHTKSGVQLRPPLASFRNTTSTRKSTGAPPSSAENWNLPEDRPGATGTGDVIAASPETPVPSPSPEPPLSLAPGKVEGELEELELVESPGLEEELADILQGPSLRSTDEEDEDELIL

Row | EC50 (CIC-1 channels) [µM] | Δ1/2 (mV) (human CIC-1 channels) | Structure (SMILES) | Point increase (%) of initial force that was restored (rat soleus muscles [1]) [%] | nerve-stimulated force, % of force before rocuronium (rat soleus muscles [2]) [%] | average increase in tetanic force (female Lewis rats; 40.0 mg/kg i.v.) [%] | average increase in tetanic force (female Lewis rats; 26.5 mg/kg i.v.) [%]
1 | 7.5 | 9.3 | C[C@H](Oc1ccc(Br)cc1-c1ccno1)C(=O)O [Compound A-22, (2S)-2-[4-bromo-2-(1,2-oxazol-5-yl)phenoxy]propanoic acid] | 27 |  |  | 
2 | 2 | 8.1 | C[C@H](Oc1ccc(Cl)cc1-c1ccon1)C(=O)O [Compound A-34, (2S)-2-[4-chloro-2-(1,2-oxazol-3-yl)phenoxy]propanoic acid] | 43 |  |  | 
3 |  | 10.3 | C[C@H](Oc1ccc(Cl)cc1-c1ccsn1)C(=O)O [Compound A-83, (2S)-2-[4-chloro-2-(1,2-thiazol-3-yl)phenoxy]propanoic acid] |  |  |  | 
4 |  |  | C=CC[N+]1([C@H]2C[C@H]3[C@@H]4CC[C@H]5C[C@H](O)[C@@H](N6CCOCC6)C[C@]5(C)[C@H]4CC[C@]3(C)[C@H]2OC(C)=O)CCCC1 [rocuronium, reference compound] |  | 51±5 |  | 
5 | 3.2 | 6.8 | C[C@H](Oc1ccc(Br)cc1-c1cocn1)C(=O)O [Compound A-42, (2S)-2-[4-bromo-2-(1,3-oxazol-4-yl)phenoxy]propanoic acid] | 14 |  |  | 
6 | 4.3 | 7.2 | CC[C@H](Oc1ccc(Br)cc1-c1ccon1)C(=O)O [Compound A-2, (2S)-2-[4-bromo-2-(1,2-oxazol-3-yl)phenoxy]butanoic acid] | 27 |  |  | 
7 | 4.3 |  | O=C(O)[C@H](CC1CC1)Oc1ccc(Cl)cc1-c1ccon1 [Compound A-41, (2S)-2-[4-chloro-2-(1,2-oxazol-3-yl)phenoxy]-3-cyclopropylpropanoic acid] | 25 |  | 36.4 | 
8 | 8.1 ± 1.2 |  | CCOC[C@H](Oc1ccc(Br)cc1-c1ccon1)C(=O)O [Compound A-81, (2S)-2-[4-bromo-2-(1,2-oxazol-3-yl)phenoxy]-3-ethoxypropanoic acid] | 45 |  |  | 52.9
9 |  | 12.8 | C[C@H](Oc1ccc(Br)cc1-c1nncs1)C(=O)O [Compound A-65, (2S)-2-[4-bromo-2-(1,3,4-thiadiazol-2-yl)phenoxy]propanoic acid] |  |  |  | 
10 | 1.8 ± 1.1 | 14.1 | C[C@H](Oc1ccc(Br)cc1-c1ccon1)C(=O)O [Compound A-16, (2S)-2-[4-bromo-2-(1,2-oxazol-3-yl)phenoxy]propanoic acid] | 48 |  |  | 
11 | 4.6 | 15.1 | O=C(O)[C@H](CC1CC1)Oc1ccc(Br)cc1-c1ccon1 [Compound A-33, (2S)-2-[4-bromo-2-(1,2-oxazol-3-yl)phenoxy]-3-cyclopropylpropanoic acid] | 35 |  |  | 
